Data: ChEMBL document CHEMBL2440112, “Structure-activity relationships of the aromatic site in novel anticonvulsant pyrrolo[1,2-a]pyrazine derivatives” (Bioorg Med Chem Lett, 2013)
Activity calls are given as the source filed them. The calls are words filed in the database; no cut-off is given here.

Columns and labels:
[1] = system: Rattus norvegicus; test: Anticonvulsant activity in po dosed albino Sprague-Dawley rat assessed as protection against maximal electroshock-induced seizures after […] to 4 hrs; format: functional, organism-based
[2] = system: Mus musculus; test: Neurotoxicity in albino mouse assessed as minimal motor impairment at 100 mg/kg, ip after 4 hrs by rotorod test; format: toxicity, organism-based; parameters: dose 100 mg/kg, route intraperitoneal; details: in vivo
[3] = system: Mus musculus; test: Neurotoxicity in albino mouse assessed as minimal motor impairment at 100 mg/kg, ip after 1 hr by rotorod test; format: toxicity, organism-based; parameters: dose 100 mg/kg, route intraperitoneal; details: in vivo
[4] = system: Mus musculus; test: Neurotoxicity in albino mouse assessed as minimal motor impairment at 100 mg/kg, ip after 0.5 hrs by rotorod test; format: toxicity, organism-based; parameters: dose 100 mg/kg, route intraperitoneal; details: in vivo
[5] = system: Mus musculus; test: Neurotoxicity in albino mouse assessed as minimal motor impairment at 100 mg/kg, ip after 0.25 hrs by rotorod test; format: toxicity, organism-based; parameters: dose 100 mg/kg, route intraperitoneal; details: in vivo
[6] = system: Mus musculus; test: Anticonvulsant activity in albino mouse assessed as protection against subcutaneous metrazole-induced seizures at 100 mg/kg, ip after 4 hrs; format: functional, organism-based; parameters: dose 100 mg/kg
[7] = system: Mus musculus; test: Toxicity in subcutaneous metrazole treated albino mouse assessed as myoclonic jerks at 100 mg/kg, ip after 0.5 hrs; format: organism-based; parameters: dose 100 mg/kg; details: in vivo, sc
[8] = system: Mus musculus; test: Anticonvulsant activity in albino mouse assessed as protection against subcutaneous metrazole-induced seizures at 100 mg/kg, ip after 0.5 hrs; format: functional, organism-based; parameters: dose 100 mg/kg
[9] = system: Mus musculus; test: Anticonvulsant activity in albino mouse assessed as protection against maximal electroshock-induced seizures at 100 mg/kg, ip after 4 hrs; format: functional, organism-based; parameters: dose 100 mg/kg
[10] = system: Mus musculus; test: Anticonvulsant activity in albino mouse assessed as protection against maximal electroshock-induced seizures at 100 mg/kg, ip after 1 hr; format: functional, organism-based; parameters: dose 100 mg/kg
[11] = system: Mus musculus; test: Anticonvulsant activity in albino mouse assessed as protection against maximal electroshock-induced seizures at 100 mg/kg, ip after 0.5 hrs; format: functional, organism-based; parameters: dose 100 mg/kg
[12] = system: Mus musculus; test: Anticonvulsant activity in albino mouse assessed as protection against maximal electroshock-induced seizures at 100 mg/kg, ip after 0.25 hrs; format: functional, organism-based; parameters: dose 100 mg/kg
[13] = system: Rattus norvegicus; test: Toxicity in albino Sprague-Dawley rat pilocarpine-induced status prevention model assessed as weight change in non-protected animal at 200 mg/kg, ip administered 30 mins before pilocarpine challenge; format: organism-based; parameters: dose 200 mg/kg, route intraperitoneal; details: in vivo, 0.5 h
[14] = system: Rattus norvegicus; test: Toxicity in albino Sprague-Dawley rat pilocarpine-induced status prevention model assessed as weight change in non-protected animal at 200 mg/kg, ip followed by immediately administered pilocarpine; format: organism-based; parameters: dose 200 mg/kg, route intraperitoneal; details: in vivo
[15] = system: Rattus norvegicus; test: Toxicity in albino Sprague-Dawley rat pilocarpine-induced status prevention model assessed as weight change in protected animal at 200 mg/kg, ip administered 30 mins before pilocarpine challenge; format: organism-based; parameters: dose 200 mg/kg, route intraperitoneal; details: in vivo, 0.5 h
[16] = system: Rattus norvegicus; test: Toxicity in albino Sprague-Dawley rat pilocarpine-induced status prevention model assessed as weight change in protected animal at 200 mg/kg, ip followed by immediately administered pilocarpine; format: organism-based; parameters: dose 200 mg/kg, route intraperitoneal; details: in vivo
[17] = system: Mus musculus; test: Anticonvulsant activity in albino mouse assessed as protection against 6 Hz psychomotor seizure at 100 mg/kg, ip after 4 hrs by minimal clonic seizure test; format: functional, organism-based; parameters: dose 100 mg/kg
[18] = system: Mus musculus; test: Anticonvulsant activity in albino mouse assessed as protection against 6 Hz psychomotor seizure at 100 mg/kg, ip after 2 hrs by minimal clonic seizure test; format: functional, organism-based; parameters: dose 100 mg/kg
[19] = system: Mus musculus; test: Anticonvulsant activity in albino mouse assessed as protection against 6 Hz psychomotor seizure at 100 mg/kg, ip after 1 hr by minimal clonic seizure test; format: functional, organism-based; parameters: dose 100 mg/kg
[20] = system: Mus musculus; test: Anticonvulsant activity in albino mouse assessed as protection against 6 Hz psychomotor seizure at 100 mg/kg, ip after 0.5 hrs by minimal clonic seizure test; format: functional, organism-based; parameters: dose 100 mg/kg
[21] = system: Mus musculus; test: Anticonvulsant activity in albino mouse assessed as protection against 6 Hz psychomotor seizure at 100 mg/kg, ip after 0.25 hrs by minimal clonic seizure test; format: functional, organism-based; parameters: dose 100 mg/kg
[22] = system: Mus musculus; test: Anticonvulsant activity in ip dosed albino mouse assessed as protection against 6 Hz psychomotor seizure by minimal clonic seizure test; format: functional
[23] = Neurotoxicity in ip dosed albino mouse minimal clonic seizure model assessed as minimal motor impairment by rotorod test; format: toxicity, organism-based; details: in vivo
[24] = system: Rattus norvegicus; test: Neurotoxicity in albino Sprague-Dawley rat assessed as minimal motor impairment at 30 mg/kg, ip after 4 hrs by rotorod test; format: toxicity, organism-based; parameters: dose 30 mg/kg, route intraperitoneal; details: in vivo
[25] = system: Rattus norvegicus; test: Neurotoxicity in albino Sprague-Dawley rat assessed as minimal motor impairment at 30 mg/kg, ip after 2 hrs by rotorod test; format: toxicity, organism-based; parameters: dose 30 mg/kg, route intraperitoneal; details: in vivo
[26] = system: Rattus norvegicus; test: Neurotoxicity in albino Sprague-Dawley rat assessed as minimal motor impairment at 30 mg/kg, ip after 1 hr by rotorod test; format: toxicity, organism-based; parameters: dose 30 mg/kg, route intraperitoneal; details: in vivo
[27] = system: Rattus norvegicus; test: Neurotoxicity in albino Sprague-Dawley rat assessed as minimal motor impairment at 30 mg/kg, ip after 0.5 hrs by rotorod test; format: toxicity, organism-based; parameters: dose 30 mg/kg, route intraperitoneal; details: in vivo
[28] = system: Rattus norvegicus; test: Neurotoxicity in albino Sprague-Dawley rat assessed as minimal motor impairment at 30 mg/kg, ip after 0.25 hrs by rotorod test; format: toxicity, organism-based; parameters: dose 30 mg/kg, route intraperitoneal; details: in vivo
[29] = species: Mus musculus; test: Protective index, ratio of TD50 for albino mouse minimal clonic seizure model to ED50 for albino mouse assessed as protection against 6 Hz psychomotor seizure; format: functional
[30] = system: Mus musculus; test: Anticonvulsant activity in ip dosed albino mouse assessed as time of peak effect for protection against 6 Hz psychomotor seizure by minimal clonic seizure test; format: functional
[31] = system: Rattus norvegicus; test: Anticonvulsant activity in albino Sprague-Dawley rat pilocarpine-induced status prevention model by measuring post-first stage 3 seizure at 200 mg/kg, ip followed by immediately administered pilocarpine; format: functional, organism-based; parameters: dose 200 mg/kg
[32] = system: Rattus norvegicus; test: Anticonvulsant activity in albino Sprague-Dawley rat pilocarpine-induced status prevention model by measuring post-first stage 3 seizure at 200 mg/kg, ip administered 30 mins before pilocarpine challenge; format: functional, organism-based; parameters: dose 200 mg/kg
[33] = system: Rattus norvegicus; test: Anticonvulsant activity in albino Sprague-Dawley rat assessed as protection against maximal electroshock-induced seizures at 30 mg/kg, ip after 4 hrs; format: functional, organism-based; parameters: dose 30 mg/kg
[34] = system: Rattus norvegicus; test: Anticonvulsant activity in albino Sprague-Dawley rat assessed as protection against maximal electroshock-induced seizures at 30 mg/kg, ip after 2 hrs; format: functional, organism-based; parameters: dose 30 mg/kg
[35] = system: Rattus norvegicus; test: Anticonvulsant activity in albino Sprague-Dawley rat assessed as protection against maximal electroshock-induced seizures at 30 mg/kg, ip after 1 hr; format: functional, organism-based; parameters: dose 30 mg/kg
[36] = system: Rattus norvegicus; test: Anticonvulsant activity in albino Sprague-Dawley rat assessed as protection against maximal electroshock-induced seizures at 30 mg/kg, ip after 0.5 hrs; format: functional, organism-based; parameters: dose 30 mg/kg
[37] = system: Rattus norvegicus; test: Anticonvulsant activity in albino Sprague-Dawley rat assessed as protection against maximal electroshock-induced seizures at 30 mg/kg, ip after 0.25 hrs; format: functional, organism-based; parameters: dose 30 mg/kg
[38] = system: Mus musculus; test: Neurotoxicity in albino mouse minimal clonic seizure model assessed as minimal motor impairment at 100 mg/kg, ip after 4 hrs by rotorod test; format: toxicity, organism-based; parameters: dose 100 mg/kg, route intraperitoneal; details: in vivo
[39] = system: Mus musculus; test: Neurotoxicity in albino mouse minimal clonic seizure model assessed as minimal motor impairment at 100 mg/kg, ip after 2 hrs by rotorod test; format: toxicity, organism-based; parameters: dose 100 mg/kg, route intraperitoneal; details: in vivo
[40] = system: Mus musculus; test: Neurotoxicity in albino mouse minimal clonic seizure model assessed as minimal motor impairment at 100 mg/kg, ip after 1 hr by rotorod test; format: toxicity, organism-based; parameters: dose 100 mg/kg, route intraperitoneal; details: in vivo
[41] = system: Mus musculus; test: Neurotoxicity in albino mouse minimal clonic seizure model assessed as minimal motor impairment at 100 mg/kg, ip after 0.5 hrs by rotorod test; format: toxicity, organism-based; parameters: dose 100 mg/kg, route intraperitoneal; details: in vivo
[42] = system: Mus musculus; test: Neurotoxicity in albino mouse minimal clonic seizure model assessed as minimal motor impairment at 100 mg/kg, ip after 0.25 hrs by rotorod test; format: toxicity, organism-based; parameters: dose 100 mg/kg, route intraperitoneal; details: in vivo
[43] = system: Mus musculus; test: Neurotoxicity in albino mouse assessed as loss of righting reflex at 100 mg/kg, ip after 0.25 hrs by rotorod test; format: toxicity, organism-based; parameters: dose 100 mg/kg, route intraperitoneal; details: in vivo
[44] = system: Mus musculus; test: Anticonvulsant activity in albino mouse assessed as protection against subcutaneous metrazole-induced seizures at 100 mg/kg, ip after 1 hr; format: functional, organism-based; parameters: dose 100 mg/kg
[45] = system: Mus musculus; test: Toxicity in subcutaneous metrazole treated albino mouse assessed as myoclonic jerks at 100 mg/kg, ip after 0.25 hrs; format: organism-based; parameters: dose 100 mg/kg; details: in vivo, sc
[46] = system: Mus musculus; test: Neurotoxicity in albino mouse minimal clonic seizure model assessed as loss of righting reflex at 100 mg/kg, ip after 0.25 hrs by rotorod test; format: toxicity, organism-based; parameters: dose 100 mg/kg, route intraperitoneal; details: in vivo
[47] = system: Mus musculus; test: Anticonvulsant activity in albino mouse assessed as protection against subcutaneous metrazole-induced seizures at 100 mg/kg, ip after 0.25 hrs; format: functional, organism-based; parameters: dose 100 mg/kg

Compound	Activity [1]	Activity [2]	Activity [3]	Activity [4]	Activity [5]	Activity [6]	Activity [8]	Activity [9]	Activity [10]	Activity [11]	Activity [12]	Activity [17]	Activity [18]	Activity [19]	Activity [20]	Activity [21]	Activity [38]	Activity [39]	Activity [40]	Activity [41]	further results
O=C1NC(=O)[C@@H]2CCCN2[C@H]1c1ccc(Cl)c(Cl)c1	inactive	Non-toxic	Non-toxic	Non-toxic	Non-toxic	inactive	Active	inactive	inactive	inactive	inactive	–	–	–	–	–	–	–	–	–	Activity [7]: Toxic
O=C1NC(=O)[C@@H]2CCCN2[C@H]1c1ccc(Cl)cc1	inactive	Non-toxic	Non-toxic	Non-toxic	Non-toxic	inactive	inactive	inactive	inactive	inactive	Active	inactive	Active	Active	Active	Active	–	–	–	–	Activity [13]: -31.4 g; Activity [14]: 15 g; Activity [15]: -30 g; Activity [16]: -3.6 g; ED50 [22]: 32.2 mg/kg; TD50 [23]: 212 mg/kg; Activity [24]: Non-toxic; Activity [25]: Non-toxic; Activity [26]: Non-toxic; Activity [27]: Non-toxic; Activity [28]: Non-toxic; Ratio TD50/ED50 [29]: 6.6; Time [30]: 0.25 h; Activity [31]: Active; Activity [32]: inactive; Activity [33]: inactive; Activity [34]: inactive; Activity [35]: inactive; Activity [36]: Active; Activity [37]: Active
Cc1ccccc1[C@H]1C(=O)NC(=O)[C@@H]2CCCN12	inactive	Non-toxic	Non-toxic	Non-toxic	–	inactive	inactive	inactive	inactive	inactive	inactive	inactive	inactive	Active	Active	Active	Non-toxic	Non-toxic	Non-toxic	Non-toxic	Activity [42]: Non-toxic; Activity [43]: Toxic; Activity [44]: inactive; Activity [45]: Toxic
O=C1NC(=O)[C@@H]2CCCN2[C@H]1c1cccc(Cl)c1	inactive	Non-toxic	Non-toxic	Non-toxic	Toxic	inactive	inactive	inactive	Active	Active	Active	inactive	inactive	Active	Active	Active	Non-toxic	Non-toxic	Non-toxic	Toxic	Activity [42]: Toxic; Activity [46]: Toxic; Activity [44]: inactive; Activity [47]: Active
